The target in experiment [1] is Serine/threonine-protein kinase 38 (Homo sapiens) (UniProt Q15208). The experiment can be described thus: Binding affinity to wild-type human partial length NDR1 (N33 to E449 residues) expressed in mammalian expression system assessed as residual binding level at 10 uM by Kinomescan method relative to control.
Experiment [2] addresses Homeodomain-interacting protein kinase 1 (Homo sapiens) (UniProt Q86Z02). Briefly: Binding affinity to wild-type human partial length HIPK1 (M146 to I555 residues) expressed in mammalian expression system assessed as residual binding level at 10 uM by Kinomescan method relative to control.
For experiment [3], the target named is Serine/threonine-protein kinase PknB (Mycobacterium tuberculosis) (UniProt P9WI81). Briefly: Binding affinity to wild-type Mycobacterium tuberculosis partial length PKNB (M1 to G279 residues) expressed in mammalian expression system assessed as residual binding level at 10 uM by Kinomescan method relative to control.
The target of experiment [4] is Cyclin-dependent kinase 11A (Homo sapiens) (UniProt Q9UQ88). Briefly: Binding affinity to wild-type human partial length CDC2L2 (D391 to K730 residues) expressed in bacterial expression system assessed as residual binding level at 10 uM by Kinomescan method relative to control.
Experiment [5] deals with Platelet-derived growth factor receptor alpha (Homo sapiens) (UniProt P16234). Briefly: Binding affinity to wild-type human partial length PDGFRA (V575 to D1002 residues) expressed in mammalian expression system assessed as residual binding level at 10 uM by Kinomescan method relative to control.
The target in experiment [6] is Rho-associated protein kinase 1 (Homo sapiens) (UniProt Q13464). The experiment can be described thus: Binding affinity to wild-type human partial length ROCK1 (M1 to R415 residues) expressed in mammalian expression system assessed as residual binding level at 10 uM by Kinomescan method relative to control.
Experiment [7] has as its target Ribosomal protein S6 kinase alpha-3 (Homo sapiens) (UniProt P51812). Briefly: Binding affinity to wild-type human partial length C-terminal RSK2 kinase domain 2 (V402 to S715 residues) expressed in mammalian expression system assessed as residual binding level at 10 uM by Kinomescan method relative to control.
The target of experiment [8] is Serine/threonine-protein kinase PLK4 (Homo sapiens) (UniProt O00444). Briefly: Binding affinity to wild-type human partial length PLK4 (M1 to S273 residues) expressed in mammalian expression system assessed as residual binding level at 10 uM by Kinomescan method relative to control.
In experiment [9] the target is TRAF2 and NCK-interacting protein kinase (Homo sapiens) (UniProt Q9UKE5). The experiment can be described thus: Binding affinity to wild-type human partial length TNIK (D4 to K311 residues) expressed in bacterial expression system assessed as residual binding level at 10 uM by Kinomescan method relative to control.
The target of experiment [10] is Cyclin-dependent kinase 8 (Homo sapiens) (UniProt P49336). The experiment can be described thus: Binding affinity to wild-type human partial length CDK8 (M1 to T360 residues) expressed in bacterial expression system assessed as residual binding level at 10 uM by Kinomescan method relative to control.
For experiment [11], the target named is Homeodomain-interacting protein kinase 2 (Homo sapiens) (UniProt Q9H2X6). The experiment can be described thus: Binding affinity to wild-type human partial length HIPK2 (M153 to S564 residues) expressed in mammalian expression system assessed as residual binding level at 10 uM by Kinomescan method relative to control.
Experiment [12] has as its target Serine/threonine-protein kinase 10 (Homo sapiens) (UniProt O94804). Briefly: Binding affinity to wild-type human partial length LOK (E16 to V314 residues) expressed in bacterial expression system assessed as residual binding level at 10 uM by Kinomescan method relative to control.
Experiment [13] has as its target Serine/threonine-protein kinase 33 (Homo sapiens) (UniProt Q9BYT3). Briefly: Binding affinity to wild-type human full length STK33 (M1 to L514 residues) expressed in bacterial expression system assessed as residual binding level at 10 uM by Kinomescan method relative to control.
Experiment [14] concerns Tyrosine-protein kinase ABL1 (Homo sapiens), P00519 [Y253F]. The experiment can be described thus: Binding affinity to human phosphorylated ABL1 Y253F mutant (S229 to K512 residues) expressed in mammalian expression system assessed as residual binding level at 10 uM by Kinomescan method relative to control.
Experiment [15] has as its target RAC-gamma serine/threonine-protein kinase (Homo sapiens) (UniProt Q9Y243). Briefly: Binding affinity to wild-type human partial length AKT3 expressed in bacterial expression system assessed as residual binding level at 10 uM by Kinomescan method relative to control.
Experiment [16] deals with RAC-alpha serine/threonine-protein kinase (Homo sapiens) (UniProt P31749). Briefly: Binding affinity to wild-type human partial length AKT1 expressed in bacterial expression system assessed as residual binding level at 10 uM by Kinomescan method relative to control.
Experiment [17] concerns Mast/stem cell growth factor receptor Kit (Homo sapiens), P10721 [V559D]. Briefly: Binding affinity to human partial length KIT V559D mutant (Y545 to D952 residues) expressed in bacterial expression system assessed as residual binding level at 10 uM by Kinomescan method relative to control.
Experiment [18] concerns the target STE20/SPS1-related proline-alanine-rich protein kinase (Homo sapiens) (UniProt Q9UEW8). The experiment can be described thus: Binding affinity to wild-type human partial length STK39 (P43 to I357 residues) expressed in mammalian expression system assessed as residual binding level at 10 uM by Kinomescan method relative to control.
Experiment [19] concerns the target Serine/threonine-protein kinase 17B (Homo sapiens) (UniProt O94768). Briefly: Binding affinity to wild-type human full length DRAK2 (M1 to C372 residues) expressed in bacterial expression system assessed as residual binding level at 10 uM by Kinomescan method relative to control.
Experiment [20] concerns the target Interleukin-1 receptor-associated kinase 4 (Homo sapiens) (UniProt Q9NWZ3). The experiment can be described thus: Binding affinity to wild-type human partial length IRAK4 (M1 to S460 residues) expressed in mammalian expression system assessed as residual binding level at 10 uM by Kinomescan method relative to control.
In experiment [21] the target is Serine/threonine-protein kinase DCLK1 (Homo sapiens) (UniProt O15075). The experiment can be described thus: Binding affinity to wild-type human partial length DCAMKL1 (L270 to A662 residues) expressed in mammalian expression system assessed as residual binding level at 10 uM by Kinomescan method relative to control.
The target of experiment [22] is Serine/threonine-protein kinase Sgk3 (Homo sapiens) (UniProt Q96BR1). Briefly: Binding affinity to wild-type human partial length SGK3 (M119 to L496 residues) expressed in mammalian expression system assessed as residual binding level at 10 uM by Kinomescan method relative to control.
For experiment [23], the target named is Serine/threonine-protein kinase 38-like (Homo sapiens) (UniProt Q9Y2H1). Briefly: Binding affinity to wild-type human partial length NDR2 (N34 to E447 residues) expressed in bacterial expression system assessed as residual binding level at 10 uM by Kinomescan method relative to control.
Experiment [24] concerns the target Serine/threonine-protein kinase VRK2 (Homo sapiens) (UniProt Q86Y07). Briefly: Binding affinity to wild-type human partial length VRK2 (M1 to T336 residues) expressed in mammalian expression system assessed as residual binding level at 10 uM by Kinomescan method relative to control.

SMILES strings stand for the structures.

Sequence of Ribosomal protein S6 kinase alpha-3 (Homo sapiens) (P51812 whole entry, the tested form may be a part): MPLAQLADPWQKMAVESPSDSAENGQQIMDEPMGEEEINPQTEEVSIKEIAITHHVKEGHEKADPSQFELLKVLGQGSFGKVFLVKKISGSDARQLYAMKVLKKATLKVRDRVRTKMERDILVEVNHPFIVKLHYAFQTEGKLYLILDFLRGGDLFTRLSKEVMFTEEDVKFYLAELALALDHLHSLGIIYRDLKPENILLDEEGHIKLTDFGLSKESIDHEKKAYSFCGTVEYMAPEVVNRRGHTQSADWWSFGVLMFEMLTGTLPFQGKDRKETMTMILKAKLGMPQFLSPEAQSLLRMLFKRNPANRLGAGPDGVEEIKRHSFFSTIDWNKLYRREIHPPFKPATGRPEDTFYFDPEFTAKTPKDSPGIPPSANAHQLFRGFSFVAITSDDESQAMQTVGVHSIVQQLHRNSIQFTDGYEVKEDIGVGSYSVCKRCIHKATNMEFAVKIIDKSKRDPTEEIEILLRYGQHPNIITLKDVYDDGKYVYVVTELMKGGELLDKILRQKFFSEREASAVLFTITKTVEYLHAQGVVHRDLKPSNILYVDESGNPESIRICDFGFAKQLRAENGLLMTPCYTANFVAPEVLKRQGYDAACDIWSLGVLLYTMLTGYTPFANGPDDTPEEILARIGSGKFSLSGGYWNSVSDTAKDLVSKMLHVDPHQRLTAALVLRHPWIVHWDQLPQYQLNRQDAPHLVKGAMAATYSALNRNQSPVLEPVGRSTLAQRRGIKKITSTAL
Sequence of Cyclin-dependent kinase 8 (Homo sapiens) (P49336 whole entry, the tested form may be a part): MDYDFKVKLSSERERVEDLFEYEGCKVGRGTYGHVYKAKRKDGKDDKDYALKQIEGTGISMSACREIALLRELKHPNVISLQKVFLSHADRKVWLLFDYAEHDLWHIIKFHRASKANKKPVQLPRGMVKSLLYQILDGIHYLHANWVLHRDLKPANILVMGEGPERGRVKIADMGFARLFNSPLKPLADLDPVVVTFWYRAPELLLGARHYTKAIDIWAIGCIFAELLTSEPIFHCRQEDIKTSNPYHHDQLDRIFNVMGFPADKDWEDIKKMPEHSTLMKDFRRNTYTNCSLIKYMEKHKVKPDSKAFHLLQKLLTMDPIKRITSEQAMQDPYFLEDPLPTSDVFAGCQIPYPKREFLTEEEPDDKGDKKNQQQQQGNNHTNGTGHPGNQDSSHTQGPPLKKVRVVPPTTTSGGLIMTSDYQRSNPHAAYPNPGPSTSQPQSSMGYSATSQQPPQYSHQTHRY
Sequence of Serine/threonine-protein kinase 38-like (Homo sapiens) (Q9Y2H1 2-464 limits assumed): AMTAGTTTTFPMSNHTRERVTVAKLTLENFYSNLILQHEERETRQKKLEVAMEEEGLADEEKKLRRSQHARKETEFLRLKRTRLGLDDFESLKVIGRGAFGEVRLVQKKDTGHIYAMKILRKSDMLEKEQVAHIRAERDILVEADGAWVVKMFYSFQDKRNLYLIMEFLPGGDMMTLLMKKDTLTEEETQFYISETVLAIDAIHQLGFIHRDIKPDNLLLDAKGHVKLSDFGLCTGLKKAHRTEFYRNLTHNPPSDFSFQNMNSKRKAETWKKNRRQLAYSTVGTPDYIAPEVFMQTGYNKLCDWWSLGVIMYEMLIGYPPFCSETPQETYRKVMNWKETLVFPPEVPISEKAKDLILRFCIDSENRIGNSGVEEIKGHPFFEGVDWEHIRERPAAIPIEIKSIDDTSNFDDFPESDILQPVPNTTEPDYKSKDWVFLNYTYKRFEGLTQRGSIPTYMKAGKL
Sequence of Serine/threonine-protein kinase 38 (Homo sapiens) (Q15208 2-465 limits assumed): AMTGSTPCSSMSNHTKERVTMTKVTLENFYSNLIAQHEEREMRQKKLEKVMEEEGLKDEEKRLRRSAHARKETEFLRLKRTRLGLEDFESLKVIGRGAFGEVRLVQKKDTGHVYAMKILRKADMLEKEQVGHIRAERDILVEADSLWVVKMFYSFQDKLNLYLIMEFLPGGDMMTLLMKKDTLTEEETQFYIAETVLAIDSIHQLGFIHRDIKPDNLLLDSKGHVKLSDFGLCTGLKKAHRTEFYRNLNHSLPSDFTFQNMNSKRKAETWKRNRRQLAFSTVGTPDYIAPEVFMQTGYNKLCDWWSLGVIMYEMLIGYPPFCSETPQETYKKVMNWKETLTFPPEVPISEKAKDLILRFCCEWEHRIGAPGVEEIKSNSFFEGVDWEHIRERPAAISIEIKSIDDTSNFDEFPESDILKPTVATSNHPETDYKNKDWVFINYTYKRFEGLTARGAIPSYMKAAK
Sequence of Serine/threonine-protein kinase DCLK1 (Homo sapiens) (O15075 whole entry, the tested form may be a part): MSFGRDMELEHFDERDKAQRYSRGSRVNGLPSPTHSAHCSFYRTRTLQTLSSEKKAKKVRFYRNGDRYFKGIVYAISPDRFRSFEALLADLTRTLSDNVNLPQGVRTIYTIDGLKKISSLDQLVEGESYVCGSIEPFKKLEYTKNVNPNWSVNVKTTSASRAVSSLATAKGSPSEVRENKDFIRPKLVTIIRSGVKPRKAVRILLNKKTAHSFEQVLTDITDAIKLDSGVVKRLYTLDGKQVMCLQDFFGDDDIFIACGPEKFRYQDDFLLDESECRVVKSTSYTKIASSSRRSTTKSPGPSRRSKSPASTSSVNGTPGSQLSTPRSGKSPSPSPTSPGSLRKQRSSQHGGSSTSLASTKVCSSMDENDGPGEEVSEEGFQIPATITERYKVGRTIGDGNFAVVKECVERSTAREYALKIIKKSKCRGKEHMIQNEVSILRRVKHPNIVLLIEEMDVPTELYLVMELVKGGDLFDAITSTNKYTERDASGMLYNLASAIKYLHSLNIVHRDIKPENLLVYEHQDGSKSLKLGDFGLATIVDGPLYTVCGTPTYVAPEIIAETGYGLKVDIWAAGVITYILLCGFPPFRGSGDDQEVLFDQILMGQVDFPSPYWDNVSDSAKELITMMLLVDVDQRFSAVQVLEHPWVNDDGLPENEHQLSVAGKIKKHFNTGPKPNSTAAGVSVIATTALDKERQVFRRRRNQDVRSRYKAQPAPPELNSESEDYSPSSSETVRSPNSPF
Sequence of RAC-gamma serine/threonine-protein kinase (Homo sapiens) (Q9Y243 whole entry): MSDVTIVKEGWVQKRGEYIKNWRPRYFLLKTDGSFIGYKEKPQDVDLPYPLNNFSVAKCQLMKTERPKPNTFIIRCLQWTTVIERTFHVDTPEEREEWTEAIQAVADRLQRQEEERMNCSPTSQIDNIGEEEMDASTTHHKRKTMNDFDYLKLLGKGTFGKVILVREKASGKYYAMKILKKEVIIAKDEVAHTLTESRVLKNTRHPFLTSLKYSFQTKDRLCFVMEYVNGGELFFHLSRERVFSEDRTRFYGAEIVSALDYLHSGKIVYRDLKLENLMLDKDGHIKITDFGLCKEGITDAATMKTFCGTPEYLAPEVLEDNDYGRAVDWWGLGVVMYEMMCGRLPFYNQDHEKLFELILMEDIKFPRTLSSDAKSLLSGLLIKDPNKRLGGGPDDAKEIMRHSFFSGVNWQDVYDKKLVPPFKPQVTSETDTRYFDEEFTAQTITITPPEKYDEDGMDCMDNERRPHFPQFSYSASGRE
Sequence of Interleukin-1 receptor-associated kinase 4 (Homo sapiens) (Q9NWZ3 whole entry, the tested form may be a part): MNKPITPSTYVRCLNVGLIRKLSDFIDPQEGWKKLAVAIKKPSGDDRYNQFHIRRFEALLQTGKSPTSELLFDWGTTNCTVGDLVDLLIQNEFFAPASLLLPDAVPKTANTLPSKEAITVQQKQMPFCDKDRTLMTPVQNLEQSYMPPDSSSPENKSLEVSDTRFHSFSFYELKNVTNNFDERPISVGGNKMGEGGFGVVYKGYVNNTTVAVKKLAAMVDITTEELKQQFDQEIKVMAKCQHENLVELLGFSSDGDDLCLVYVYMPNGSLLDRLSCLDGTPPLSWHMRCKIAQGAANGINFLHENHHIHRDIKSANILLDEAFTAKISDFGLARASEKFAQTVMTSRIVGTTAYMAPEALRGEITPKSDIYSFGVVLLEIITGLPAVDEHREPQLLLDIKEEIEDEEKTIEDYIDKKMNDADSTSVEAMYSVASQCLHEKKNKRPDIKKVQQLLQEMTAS
Sequence of Cyclin-dependent kinase 11A (Homo sapiens) (Q9UQ88 whole entry, the tested form may be a part): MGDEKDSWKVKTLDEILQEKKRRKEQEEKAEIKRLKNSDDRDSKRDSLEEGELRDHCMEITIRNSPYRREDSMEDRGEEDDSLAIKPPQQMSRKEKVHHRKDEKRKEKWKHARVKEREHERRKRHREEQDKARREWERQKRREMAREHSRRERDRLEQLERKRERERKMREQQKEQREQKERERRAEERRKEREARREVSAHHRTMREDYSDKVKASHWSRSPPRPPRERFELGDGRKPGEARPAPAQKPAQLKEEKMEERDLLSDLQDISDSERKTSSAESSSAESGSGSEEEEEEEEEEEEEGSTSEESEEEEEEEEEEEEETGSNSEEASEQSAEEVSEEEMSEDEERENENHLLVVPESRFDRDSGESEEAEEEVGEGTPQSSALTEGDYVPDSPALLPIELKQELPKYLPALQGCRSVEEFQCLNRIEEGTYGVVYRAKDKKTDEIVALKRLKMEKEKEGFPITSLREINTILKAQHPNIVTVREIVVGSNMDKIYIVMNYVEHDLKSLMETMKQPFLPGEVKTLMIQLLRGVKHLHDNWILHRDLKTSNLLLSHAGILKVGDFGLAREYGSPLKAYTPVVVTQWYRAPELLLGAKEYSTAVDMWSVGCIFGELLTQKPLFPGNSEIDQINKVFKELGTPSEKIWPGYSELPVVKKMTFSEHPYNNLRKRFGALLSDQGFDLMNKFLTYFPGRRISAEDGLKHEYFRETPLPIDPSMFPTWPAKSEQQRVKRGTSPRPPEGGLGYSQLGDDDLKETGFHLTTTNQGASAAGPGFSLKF
Sequence of Serine/threonine-protein kinase 17B (Homo sapiens) (O94768 whole entry, the tested form may be a part): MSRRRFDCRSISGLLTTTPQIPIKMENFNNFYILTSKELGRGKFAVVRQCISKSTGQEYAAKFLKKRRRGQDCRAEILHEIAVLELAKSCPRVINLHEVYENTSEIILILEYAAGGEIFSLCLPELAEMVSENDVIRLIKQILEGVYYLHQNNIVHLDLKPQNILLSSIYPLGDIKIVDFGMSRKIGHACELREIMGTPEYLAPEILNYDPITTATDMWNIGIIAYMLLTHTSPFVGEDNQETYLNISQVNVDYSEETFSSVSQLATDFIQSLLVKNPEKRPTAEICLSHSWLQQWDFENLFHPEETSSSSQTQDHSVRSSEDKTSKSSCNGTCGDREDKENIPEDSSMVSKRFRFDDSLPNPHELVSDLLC

`O=C(Nc1cc(-c2cn(CCNc3c4c(nc5ccccc35)CCCC4)nn2)ccn1)Nc1cccc2c1C1CCCCN1C2=O` (racemic): the Activity turned out to be 100% in [1]; 43% in experiment [2]; 3.3% in experiment [3]; 99% in experiment [4]; 22% in [5]; 36% in experiment [6]. Moreover, the Activity in [7] was 100%; in [8], 100%; in [9] it was 48%; in [10], 64%; in experiment [11] it was 49%; in experiment [12] it was 99%. For the same compound, the Activity in [13] was found to be 6.7%; in [14], 0.95%; in experiment [15] it was 100%; in experiment [16] it was 100%; in experiment [17] it was 0.05%; in [18], 100%. Also, the Activity came to 1.7% in experiment [19]; 93% in [20]; 82% in experiment [21]; 1.3% in experiment [22]; 99% in experiment [23]; 15% in experiment [24].
